According to patent publication US8841321B2, “Quinoline derivatives as antibacterial agents” (Janssen Pharmaceutica NV, priority 2005, dated 2014):
Converted amounts (≈) assume the structure as drawn.

Experiments:
Experiment in all cases: Microtitre plate assay, IC90 determination
Type in all cases: cell-based
[1] = system: EFA 29212 (Enterococcus faecalis (ATCC29212)); details: Enterococcus faecalis (ATCC29212)
[2] = system: SPY 8668 (Streptococcus pyogens (ATCC8668)); details: Streptococcus pyogens (ATCC8668)
[3] = system: PAE 27853 (Pseudomonas aeruginosa (ATCC27853)); details: Pseudomonas aeruginosa (ATCC27853)
[4] = system: SPN 6305 (Streptococcus pneumoniae (ATCC6305)); details: for IC90 (μg/ml) SPN 6305: Streptococcus pneumoniae (ATCC6305); for IC90: Streptococcus pneumoniae, ATCC6305, Streptococcus pneumoniae (ATCC6305), read-out: IC90 (μg/ml) SPN 6305
Protocol: (§1) The bacteria used in this study were grown overnight in flasks containing 100 ml Mueller-Hinton Broth (Becton Dickinson—cat. no. 275730) in sterile de-ionized water, with shaking, at 37° C. Stocks (0.5 ml/tube) were stored at −70° C. until use. Bacteria titrations were performed in microtiter plates and colony forming units (CFUs) were determined. In general, an inoculum level of approximately 100 CFUs was used for susceptibility testing.
(§2) Flat-bottom, sterile 96-well plastic microtiter plates were filled with 180 μl of sterile deionized water, supplemented with 0.25% BSA. Subsequently, stock solutions (7.8× final test concentration) of compounds were added in 45 μl volumes in column 2. Serial five-fold dilutions (45 μl in 180 μl) were made directly in the microtiter plates from column 2 to reach column 11. Untreated control samples with (column 1) and without (column 12) inoculum were included in each microtiter plate. Depending on the bacteria type, approximately 10 to 60 CFU per well of bacteria inoculum (100 TCID50), in a volume of 100 μl in 2.8× Mueller-Hinton broth medium, was added to the rows A to H, except column 12. The same volume of broth medium without inoculum was added to column 12 in row A to H. The cultures were incubated at 37° C. for 24 hours under a normal atmosphere (incubator with open air valve and continuous ventilation). At the end of incubation, one day after inoculation, the bacterial growth was quantitated fluorometrically. Therefore resazurin (0.6 mg/ml) was added in a volume of 20 μl to all wells 3 hours after inoculation, and the plates were re-incubated overnight. A change in colour from blue to pink indicated the growth of bacteria. The fluorescence was read in a computer-controlled fluorometer (Cytofluor Biosearch) at an excitation wavelength of 530 nm and an emission wavelength of 590 nm. The % growth inhibition achieved by the compounds was calculated according to standard methods. The IC90 (expressed in μg/ml) was defined as the 90% inhibitory concentration for bacterial growth.

[5] = system: STA 29213 (Staphylococcus aureus (ATCC29213)); details: for IC90 (μg/ml) STA 29213: Staphylococcus aureus (ATCC29213)
Protocol: as §1, §2

[6] = system: STA RMETH (methicilline resistant Staphylococcus aureus (MRSA), a clinical isolate from the University of Antwerp); details: for IC90: Staphylococcus aureus, MRSA, read-out: IC90 (μg/ml) STA RMETH

SMILES | IC90 (μg/ml) SPN 6305 [4] [µg/mL] | IC90 (μg/ml) STA 29213 [5] [µg/mL] | IC90 (μg/ml) STA RMETH [6] [µg/mL] | other results
COc1ccc(C(c2cc3cc(Br)ccc3nc2OC)C(O)(CCCCN(C)C)c2ccc3ccccc3c2)cc1 (single isomer, unassigned) [Compound 158] | 1.22 (≈ 1.99 µM) | 0.4 (≈ 0.652 µM) |  | IC90 (μg/ml) EFA 29212 [1]: 1.94 µg/mL (≈ 3.16 µM); IC90 (μg/ml) SPY 8668 [2]: 0.87 µg/mL (≈ 1.42 µM); IC90 (μg/ml) PAE 27853 [3]: 0.87 µg/mL (≈ 1.42 µM)
CNCCCCC(O)(c1ccc2ccccc2c1)C(c1ccccc1)c1cc2cc(Br)ccc2nc1OC (racemic) [Compound 74] | 0.9 (≈ 1.58 µM) | 11.36 (≈ 19.9 µM) |  | IC90 (μg/ml) EFA 29212 [1]: 9.03 µg/mL (≈ 15.9 µM); IC90 (μg/ml) SPY 8668 [2]: 9.03 µg/mL (≈ 15.9 µM); IC90 (μg/ml) PAE 27853 [3]: 10.13 µg/mL (≈ 17.8 µM)
COc1nc2ccc(Br)cc2cc1C(c1ccccc1)C(O)(CCCCN1CCCCC1)c1ccc2ccccc2c1 (racemic) [Compound 96] | 2.21 (≈ 3.54 µM) | 4.42 (≈ 7.09 µM) | 9.88 (≈ 15.8 µM) | 
COc1nc2ccc(Br)cc2cc1C(c1ccccc1)C(O)(CCCCN1CCC(N(C)C)CC1)CCc1ccccc1 (single isomer, unassigned) [Compound 140] | 4.56 (≈ 7.07 µM) | 4.56 (≈ 7.07 µM) | 2.57 (≈ 3.99 µM) | 
CSc1nc2ccc(Br)cc2cc1C(c1ccccc1)C(O)(CCCCN(C)C)c1ccc2c(c1)OCO2 (racemic) [Compound 87] | 2.36 (≈ 3.98 µM) | 1.88 (≈ 3.17 µM) | 2.36 (≈ 3.98 µM) | 
COc1nc2ccc(Br)cc2cc1C(c1ccccc1)C(O)(CCCCN1CCN(C)CC1)CCC1CCCCC1 (single isomer, unassigned) [Compound 126] | 2.21 (≈ 3.55 µM) | 4.41 (≈ 7.08 µM) | 5.55 (≈ 8.91 µM) | 
COc1nc2ccc(Br)cc2cc1C(c1ccccc1)C(O)(CCCCN1CCC(N(C)C)CC1)CCc1ccccc1 (single isomer, unassigned) [Compound 139] | 5.12 (≈ 7.94 µM) | 4.56 (≈ 7.07 µM) | 12.86 (≈ 19.9 µM) | 
COc1nc2ccc(Br)cc2cc1C(c1ccccc1)C(O)(CCCCN1CCNCC1)CCc1ccccc1 (single isomer, unassigned) [Compound 135] | 2.4 (≈ 3.98 µM) | 1.91 (≈ 3.17 µM) | 12.02 (≈ 19.9 µM) | 
CCN(CC)CCCCC(O)(c1ccc2ccccc2c1)C(c1ccccc1)c1cc2cc(Br)ccc2nc1OC (racemic) [Compound 85] | 1.93 (≈ 3.16 µM) | 1.93 (≈ 3.16 µM) | 12.2 (≈ 19.9 µM) | 
COc1nc2ccccc2cc1C(c1ccc(-c2ccccc2)cc1)C(O)(CCCCN(C)C)c1ccc2ccccc2c1 (stereo not shown) [Compound 56] |  | 1.84 (≈ 3.17 µM) | 5.81 (≈ 10 µM) | IC90 [4]: 2.31 µg/mL (≈ 3.98 µM)
COc1nc2ccccc2cc1C(c1ccccc1)C(O)(CCCCN(C)C)c1ccc2ccccc2c1 (stereo not shown) [Compound 37] | 1.8 (≈ 3.57 µM) | 2.0 (≈ 3.96 µM) |  | IC90 [6]: 10.1 µg/mL (≈ 20 µM)
COc1nc2ccc(Br)cc2cc1C(c1ccccc1)C(O)(CCCCN(C)C)c1cccc(F)c1 (racemic) [Compound 84] | 9.81 (≈ 17.8 µM) | 1.74 (≈ 3.16 µM) | 11 (≈ 19.9 µM) | 
CCN(CC)CCCCC(O)(CCc1ccccc1)C(c1ccccc1)c1cc2cc(Br)ccc2nc1OC (single isomer, unassigned) [Compound 132] | 2.09 (≈ 3.54 µM) | 2.09 (≈ 3.54 µM) | 11.76 (≈ 19.9 µM) | 
COc1nc2ccc(Br)cc2cc1C(c1ccccc1)C(O)(CCCCN(C)Cc1ccccc1)c1ccc2ccccc2c1 (racemic) [Compound 76] | 2.34 (≈ 3.55 µM) |  |  | IC90 (μg/ml) SPY 8668 [2]: 10.46 µg/mL (≈ 15.9 µM)
COc1nc2ccc(Br)cc2cc1C(c1ccccc1)C(O)(CCCCN1CCNCC1)c1ccccc1 (racemic) [Compound 104] | 2.04 (≈ 3.55 µM) | 1.82 (≈ 3.17 µM) | 12.86 (≈ 22.4 µM) | 
COc1nc2ccc(-c3ccco3)cc2cc1C(c1ccccc1)C(O)(CCCCN(C)C)c1ccccc1 (racemic) [Compound 82] | 1.65 (≈ 3.17 µM) | 1.65 (≈ 3.17 µM) | 10.39 (≈ 20 µM) | 
COc1nc2ccc(Br)cc2cc1C(c1ccccc1)C(O)(CCCCN1CCCCC1)CCc1ccccc1 (single isomer, unassigned) [Compound 134] | 2.13 (≈ 3.54 µM) | 4.26 (≈ 7.08 µM) | 12 (≈ 19.9 µM) | 
COc1nc2ccc(Br)cc2cc1C(c1ccccc1)C(O)(CCCCN(C)C(C)C)c1ccccc1 (single isomer, unassigned) [Compound 91] | 2.51 (≈ 4.47 µM) | 2.24 (≈ 3.99 µM) | 12.57 (≈ 22.4 µM) | 
COc1nc2ccc(Br)cc2cc1C(c1ccccc1)C(O)(CCCCN1CCN(C)CC1)CCc1cccc2ccccc12 (single isomer, unassigned) [Compound 142] | 2.37 (≈ 3.55 µM) | 2.65 (≈ 3.97 µM) | 2.37 (≈ 3.55 µM) | 
COc1nc2ccc(-c3ccco3)cc2cc1C(c1ccccc1)C(O)(CCCCN(C)C)c1ccc2ccccc2c1 (stereo not shown) [Compound 39] | 3.6 (≈ 6.31 µM) | 2.0 (≈ 3.5 µM) |  | IC90 [6]: 4.5 µg/mL (≈ 7.88 µM)
COc1nc2ccc(Br)cc2cc1C(c1ccccc1)C(O)(CCCCN1CCNCC1)CCc1ccccc1 (single isomer, unassigned) [Compound 136] | 2.4 (≈ 3.98 µM) | 1.91 (≈ 3.17 µM) | 5.37 (≈ 8.91 µM) | 
COc1nc2ccc(Br)cc2cc1C(c1ccccc1)C(O)(CCCCN1CCCCC1)CCc1ccccc1.Cl (single isomer, unassigned) [Compound 133] | 2.13 | 1.9 | 12 | 
COc1nc2ccc(-c3ccco3)cc2cc1C(c1ccccc1)C(O)(CCCCN(C)C)c1ccccc1 (racemic) [Compound 83] | 1.65 (≈ 3.17 µM) | 1.65 (≈ 3.17 µM) | 5.21 (≈ 10 µM) | 
COc1nc2ccc(Br)cc2cc1C(c1ccccc1)C(O)(CCCCN(C)C)CCc1ccccc1 (single isomer, unassigned) [Compound 131] | 2.24 (≈ 3.99 µM) | 1.78 (≈ 3.17 µM) | 11.2 (≈ 19.9 µM) | 
COc1nc2ccccc2cc1C(c1ccc(-c2ccccc2)cc1)C(O)(CCCCN(C)C)c1ccc2ccccc2c1 (stereo not shown) [Compound 57] | 2.31 (≈ 3.98 µM) | 4.11 (≈ 7.08 µM) | 2.59 (≈ 4.46 µM) | 
COc1nc2ccc(Br)cc2cc1C(c1ccccc1)C(O)(CCCCCN(C)C)c1ccccc1 (single isomer, unassigned) [Compound 154] | 1.75 (≈ 3.2 µM) | 1.75 (≈ 3.2 µM) |  | IC90 (μg/ml) SPY 8668 [2]: 8.68 µg/mL (≈ 15.9 µM); IC90 (μg/ml) PAE 27853 [3]: 8.68 µg/mL (≈ 15.9 µM)
COc1nc2ccc(Br)cc2cc1C(c1ccccc1)C(O)(CCCCN1CCCCC1)CC(C)C (racemic) [Compound 122] | 1.96 (≈ 3.54 µM) | 1.75 (≈ 3.16 µM) | 11.05 (≈ 20 µM) | 
CCN(CC)CCCCC(O)(CCc1cccc2ccccc12)C(c1ccccc1)c1cc2cc(Br)ccc2nc1OC (stereo not shown) [Compound 73] |  |  |  | IC90 [6]: 2.55 µg/mL (≈ 3.99 µM); IC90 [4]: 2.55 µg/mL (≈ 3.99 µM); IC90 ([5]; Staphylococcus aureus, ATCC29213, Staphylococcus aureus (ATCC29213), read-out: IC90 (μg/ml) STA 29213): 2.02 µg/mL (≈ 3.16 µM)
COc1nc2c(C)c(Br)ccc2cc1C(c1ccccc1)C(O)(CCCCN(C)C)c1ccc2ccccc2c1 (racemic) [Compound 80] | 2.12 (≈ 3.55 µM) | 1.89 (≈ 3.16 µM) | 2.38 (≈ 3.98 µM) | 
